Molecules are shown by their SMILES. Structures can show the parent of a compound that is named as a salt.

One assay deals with serotonin 2 receptor (Rattus norvegicus, UniProt P14842). The experiment in a line: Binding test on [3H] ketanserin (serotonin 2 receptor). As to conditions: [3H] ketanserin 0.3 nM, receptor fraction of rat cerebral cortex; read-out: 5HT2.
A further assay concerns the target T1, serotonin 1A receptor (Rattus norvegicus, UniProt P19327).
T1 construct: To the receptor fraction of the hippocampus were added a test compound and 0.5 nM of [^3H]; 8-hydroxy-dipropylaminotetralin; from tissue; host or cells: SD rat hippocampus, membrane (receptor) fraction
T1 sequence (P19327 1-422): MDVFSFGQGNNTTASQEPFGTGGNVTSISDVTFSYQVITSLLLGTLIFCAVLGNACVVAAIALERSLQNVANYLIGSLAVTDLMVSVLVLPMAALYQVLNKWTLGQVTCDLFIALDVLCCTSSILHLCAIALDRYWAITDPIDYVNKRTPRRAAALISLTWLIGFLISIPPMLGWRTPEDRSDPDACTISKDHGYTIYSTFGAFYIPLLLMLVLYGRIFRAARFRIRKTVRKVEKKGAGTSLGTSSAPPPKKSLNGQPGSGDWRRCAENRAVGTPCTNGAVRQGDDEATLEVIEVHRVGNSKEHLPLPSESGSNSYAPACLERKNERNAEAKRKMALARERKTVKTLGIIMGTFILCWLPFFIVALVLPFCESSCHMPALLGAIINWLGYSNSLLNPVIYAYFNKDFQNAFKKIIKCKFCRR
The experiment in a line: Binding test on [3H] 8-hydroxy-dipropylaminotetralin (serotonin 1A receptor). To be noted: [3H] 8-OH-DPAT 0.5 nM, receptor fraction of rat hippocampus; read-out: 5HT1a.

serotonin 2 receptor, sequence (P14842 whole entry): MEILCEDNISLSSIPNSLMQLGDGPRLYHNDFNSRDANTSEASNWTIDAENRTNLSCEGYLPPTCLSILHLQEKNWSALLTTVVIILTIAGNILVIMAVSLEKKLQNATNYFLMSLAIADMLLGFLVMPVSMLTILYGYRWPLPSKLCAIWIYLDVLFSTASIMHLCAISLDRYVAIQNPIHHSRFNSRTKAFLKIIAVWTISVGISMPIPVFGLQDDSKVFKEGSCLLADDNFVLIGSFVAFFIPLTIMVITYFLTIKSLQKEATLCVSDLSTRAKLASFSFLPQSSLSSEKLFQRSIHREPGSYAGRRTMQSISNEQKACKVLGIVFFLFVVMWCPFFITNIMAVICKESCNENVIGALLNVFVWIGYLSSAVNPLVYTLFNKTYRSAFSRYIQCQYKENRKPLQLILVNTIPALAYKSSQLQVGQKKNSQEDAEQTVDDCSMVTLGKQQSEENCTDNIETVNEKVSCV
Procedure for serotonin 2 receptor: Use was made of SD rats aged 6 to 8 weeks.
The rats were sacrificed by dcapitation to extirpate the cerebra.
The hippocampus was mixed with 50 times (on the wet weight basis) as much a 0.32 M sucrose solution while the cortex was mixed with 10 times as much the same solution. Each mixture was homogenized by using a Teflon glass homogenizer and centrifuged at 1,000×g for 10 min. The supernatant thus obtained was further centrifuged at 20,000×g for 20 min. The obtained precipitate was re-suspended in 50 times (based on the intial wet weight; in the case of the hippocampus) or 10 times (in the case of the cortex) as much a 50 mM Tris hydrochloride (pH 7.4) and incubated at room temperature for 30 min. After centrifuging at 20,000×g for 20 min, the obtained precipitate was further suspended and centrifuged twice each in the same manner. The precipitate thus obtained was suspended in 100 times (based on the initial wet weight; in the case of the hippocampus) or 20 times (in the case of the cortex) as much a 50 mM Tris hydrochloride solution (pH 7.4) to thereby give a receptor fraction. This receptor fraction was stored at −80° C. until using.
(Binding Test on [^3H] Ketanserin)
Next, it was filtered through a glass filter with the use of a cell harvester. After washing the glass filter with 50 mM Tris hydrochloride (pH 7.4), the radioactivity of the receptor was measured with a liquid scintillation counter. The binding detected in the presence of 1 μM of methysergide was referred to as the nonspecific binding.
IC50 was calculated by the probit method, while Ki was determined in accordance with the following formula:
wherein c represents the concentration of the radioisotope-labeled compound, and Kd represents the dissociation constant of the radioisotope-labeled compound with respect to the receptor determined by Scatchard's analysis.

For the compound `CCN1CCC(N2CC(CCc3cccc(OC)c3)c3ccccc32)CC1` (stereo not shown) [Example 246, 1-(1-ethylpiperidin-4-yl)-3-(3-methoxyphenethyl)indoline], the Ki on serotonin 2 receptor is 60 nM; at serotonin 1A receptor it was over 200 nM.
For `OC(CCCN1CCC(N2CCc3ccccc32)CC1)c1ccc(F)cc1` (stereo not shown) [Example 73, 1-{1-[4-(4-fluorophenyl)-4-hydroxybutyl]piperidin-4-yl}indoline], in that order: 7.2 nM and 34.9 nM.
For `COc1ccc2c(c1)N(C1CCN(CCc3ccc(S(N)(=O)=O)cc3)CC1)CC2` [Example 230, 1-[1-(4-sulfamoylphenethyl)piperidin-4-yl]-6-methoxyindoline], in that order: over 200 nM and 13.3 nM.
For `O=C(Cc1ccc2ccn(C3CCN(CCc4ccc(F)cc4)CC3)c2c1)NCCc1ccccn1` [Example 315, 1-[1-(4-fluorophenethyl)piperidin-4-yl]-6-[2-(pyridin-2-yl)ethyl]carbamoylmethylindole Oxalate], in that order: 1.18 nM and 6.74 nM.
In the case of `NC(=O)c1ccc(CCN2CCC(N3CCc4ccccc43)CC2)cc1` [Example 40, 1-[1-(4-carbamoylphenethyl)piperidin-4-yl]indoline], the Ki is over 200 nM on serotonin 2 receptor and 43.7 nM on serotonin 1A receptor.
The corresponding values for `Nc1ccc(CCN2CCC(N3CCc4ccccc43)CC2)cc1` [Example 30, 1-[1-(4-aminophenethyl)piperidin-4-yl]indoline] are 15.7 nM and 21.9 nM.
For the compound `OCc1ccc(CCN2CCC(N3CCc4ccccc43)CC2)cc1CO` [Example 45, 1-{1-[3,4-di(hydroxymethyl)phenethyl]piperidin-4-yl}indoline], the Ki on serotonin 2 receptor is 6.4 nM; on serotonin 1A receptor it was 15.2 nM.
Consider `N#CCc1ccc2c(c1)N(C1CCN(CCc3ccc(F)cc3)CC1)CC2` [Example 145, 1-[1-(4-fluorophenethyl)piperidin-4-yl]-6-cyanomethylindoline], for which the results for the Ki at serotonin 2 receptor and on serotonin 1A receptor were 48.8 nM and 8.07 nM, respectively.
For `COc1ccc(CC(C)N2CCC(N3CCc4ccccc43)CC2)cc1OC` (stereo not shown) [Example 76, 1-{1-[1-(3,4-dimethoxyphenyl)propan-2-yl]piperidin-4-yl}indoline], in that order: over 200 nM and 43.2 nM.
`N#Cc1ccc2c(c1)N(C1CCN(CCc3ccc(F)cc3)CC1)CC2` [Example 124, 1-[1-(4-fluorophenethyl)piperidin-4-yl]-6-cyanoindoline]: the Ki at serotonin 2 receptor amounted to 45.8 nM; at serotonin 1A receptor, 1.1 nM.
The corresponding values for `CC(O)(c1ccc2c(c1)N(C1CCN(CCc3ccc(F)cc3)CC1)CC2)c1ccccn1` (stereo not shown) [Example 181, 1-[1-(4-fluorophenethyl)piperidin-4-yl]-6-[1-hydroxy-1-(2-pyridyl)ethyl]indoline] are 9.62 nM and 1030 nM.
The corresponding values for `OC(c1ccc(Cl)nc1)c1ccc2c(c1)N(C1CCN(CCc3ccc(F)cc3)CC1)CC2` (stereo not shown) [Example 192, 1-[1-(4-fluorophenethyl)piperidin-4-yl]-6-[1-hydroxy-1-(2-chloropyridin-5-yl)methyl]indoline] are 2.9 nM and 1.02 nM.
As to `COc1ccc(CCN2CCC(N3CCc4ccccc43)CC2)cc1` [Example 18, 1-[1-(4-methoxyphenethyl)piperidin-4-yl]indoline], the Ki at serotonin 2 receptor came to 0.12 nM; at serotonin 1A receptor, 0.13 nM.
As for `OC(c1ccc2c(c1)N(C1CCN(CCc3ccc(F)cc3)CC1)CC2)c1ccccn1` (stereo not shown) [Example 174, 1-[1-(4-fluorophenethyl)piperidin-4-yl]-6-[1-hydroxy-1-(2-pyridyl)methyl]indoline], the Ki came to 1.85 nM at serotonin 2 receptor and 0.24 nM on serotonin 1A receptor.
Take `CN1CCC(Cc2ccc3c(c2)N(C2CCN(CCc4ccc(F)cc4)CC2)CC3)CC1` [Example 170, 1-[1-(4-fluorophenethyl)piperidin-4-yl]-6-[(1-methylpiperidin-4-yl)methyl]indoline]: the Ki at serotonin 2 receptor stood at 16.3 nM; on serotonin 1A receptor, 47.5 nM.
The corresponding values for `COc1ccc(CC2CN(C3CCN(CCc4ccc(F)cc4)CC3)c3ccccc32)cc1` (stereo not shown) [Example 215, 1-[1-(4-fluorophenethyl)piperidin-4-yl]-3-(4-methoxybenzyl)indoline] are 1 nM and 126 nM.
As for `CS(=O)(=O)NCc1ccc2c(c1)N(C1CCN(CCc3ccc(F)cc3)CC1)CC2` [Example 160, 1-[1-(4-fluorophenethyl)piperidin-4-yl]-6-methylsulfonylaminomethylindoline], the Ki at serotonin 2 receptor was found to be 8 nM; on serotonin 1A receptor, 3.86 nM.
The corresponding values for `COc1ccc(CCN2CCC(N3CCc4ccc(OC)cc43)CC2)cc1` [Example 228, 1-[1-(4-methoxyphenethyl)piperidin-4-yl]-6-methoxyindoline] are over 200 nM and 0.34 nM.
Consider `Fc1cc(F)cc(CCN2CCC(N3CCc4ccccc43)CC2)c1` [Example 12, 1-[1-(3,5-difluorophenethyl)piperidin-4-yl]indoline], for which the Ki on serotonin 2 receptor was 16.3 nM; at serotonin 1A receptor, 8.5 nM.
The corresponding values for `Fc1ccc(CCN2CCC(N3CCc4ccc(Cl)nc43)CC2)cc1` [Example 259, 1-[1-(4-fluorophenethyl)piperidin-4-yl]-6-chloro-7-azaindoline] are 5.9 nM and 0.6 nM.
For `O=C(NCCN1CCC(N2CCc3ccccc32)CC1)c1ccc(F)cc1` [Example 75, 1-[1-(4-fluorobenzamido)ethylpiperidin-4-yl]indoline], the Ki on serotonin 2 receptor was found to be 30.3 nM; on serotonin 1A receptor, 3.6 nM.
For `OCc1ccc2c(c1)N(C1CCN(CCc3ccc(F)cc3)CC1)CC2` [Example 136, 1-[1-(4-fluorophenethyl)piperidin-4-yl]-6-hydroxymethylindoline], in that order: 6.2 nM and 3.4 nM.
For `O/N=C/c1ccc2c(c1)N(C1CCN(CCc3ccc(F)cc3)CC1)CC2` [Example 131, 1-[1-(4-fluorophenethyl)piperidin-4-yl]-6-hydroxyiminomethylindoline], in that order: 15.2 nM and 0.17 nM.
In the case of `CC(=O)NCc1ccc2c(c1)N(C1CCN(CCc3ccc(F)cc3F)CC1)CC2` [Example 224, 1-[1-(2,4-difluorophenethyl)piperidin-4-yl]-6-acetamidomethylindoline], the Ki at serotonin 2 receptor is 5.11 nM; at serotonin 1A receptor, 3.09 nM.
The corresponding values for `CC(C)Nc1ccc2c(c1)N(C1CCN(CCc3ccc(F)cc3)CC1)CC2` [Example 113, 1-[1-(4-fluorophenethyl)piperidin-4-yl]-6-isopropylaminoindoline] are over 200 nM and 13.7 nM.
For `c1ccc2c(c1)CCN2C1CCN(CCc2cnccn2)CC1` [Example 67, 1-(1-pyrazinylethylpiperidin-4-yl)indoline], in that order: 27.1 nM and 263 nM.
In the case of `CC(C)NC(=O)Cc1ccc(CCN2CCC(N3CCc4ccccc43)CC2)cc1` [Example 41, 1-[1-(4-N-isopropylcarbamoylmethylphenethyl)piperidin-4-yl]indoline], the Ki at serotonin 2 receptor amounted to 5.03 nM; on serotonin 1A receptor it was 19.8 nM.
With `CS(=O)(=O)c1ccc(CCN2CCC(N3CCc4ccccc43)CC2)cc1` [Example 28, 1-[1-(4-methanesulfonylphenethyl)piperidin-4-yl]indoline], the Ki worked out at 8.1 nM on serotonin 2 receptor and 46.9 nM at serotonin 1A receptor.
The corresponding values for `O=C(c1cccnc1)c1ccc2c(c1)N(C1CCN(CCc3ccc(F)cc3)CC1)CC2` [Example 183, 1-[1-(4-fluorophenethyl)piperidin-4-yl]-6-(3-pyridylcarbonyl)indoline] are 3.86 nM and 1.18 nM.
The corresponding values for `CCCS(=O)(=O)Nc1ccc2c(c1)N(C1CCN(CCc3ccc(F)cc3)CC1)CC2` [Example 118, 1-[1-(4-fluorophenethyl)piperidin-4-yl]-6-propanesulfonylaminoindoline] are 10.4 nM and 0.7 nM.
For the compound `O=C1CCCC(=O)N1Cc1ccc2c(c1)N(C1CCN(CCc3ccc(F)cc3)CC1)CC2` [Example 205, 1-[1-(4-fluorophenethyl)piperidin-4-yl]-6-(glutarimido-1-yl)methylindoline], the Ki amounted to 0.12 nM on serotonin 2 receptor and 2.76 nM at serotonin 1A receptor.
The corresponding values for `CNC(=O)Cc1ccc2c(c1)N(C1CCN(CCc3ccc(F)cc3)CC1)CC2` [Example 148, 1-[1-(4-fluorophenethyl)piperidin-4-yl]-6-(methylcarbamoylmethyl)indoline] are 0.25 nM and 9.58 nM.
The corresponding values for `O=S(=O)(Nc1ccc2c(c1)N(C1CCN(CCc3ccc(F)cc3)CC1)CC2)c1ccc(F)cc1` [Example 119, 1-[1-(4-fluorophenethyl)piperidin-4-yl]-6-(4-fluorobenzenesulfonylamino)indoline] are 45.5 nM and 0.2 nM.
For `CN(C)CCOc1ccc(CCN2CCC(N3CCc4ccccc43)CC2)cc1` [Example 44, 1-{1-[4-(2-dimethylaminoethoxy)phenethyl]piperidin-4-yl}indoline], in that order: 43.7 nM and 4 nM.
Regarding `Oc1ccc(CCN2CCC(N3CCc4ccccc43)CC2)cc1` [Example 20, 1-[1-(4-hydroxyphenethyl)piperidin-4-yl]indoline], the Ki on serotonin 2 receptor turned out to be 0.22 nM; on serotonin 1A receptor it was 15.2 nM.

The record behind these values is US6579881B2 (Eisai Co., Ltd., priority 1997, dated 2003).
